One assay deals with Carbonic anhydrase 1 (Homo sapiens, UniProt P00915). The assay is described as follows: Competitive Displacement Binding Assay. The settings on record: pH 7; 25 °C. How it is done:
(§1) The dissociation constant of the hCA and inhibitor complex was determined by competitive displacement of a fixed concentration of dansylamide by increasing concentrations of the inhibitor using Perkin-Elmer lambda 50-B spectrofluorometer. […] The dissociation constant of the enzyme-inhibitor complex was determined by monitoring the decrease in the fluorescence of the enzyme-dansylamide complex as a function of the increasing concentration of the inhibitor.

For another assay, the target named is Carbonic anhydrase 2 (Homo sapiens, UniProt P00918). The assay is described as follows: Competitive Displacement Binding Assay. The settings on record: pH 7; 25 °C. As to the method:
as §1

1 molecule from BindingDB's records for doi:10.1021/ja057257n (University of Pennsylvania, 2006) can be followed below.

Each structure is given as a SMILES string.

Chain of Carbonic anhydrase 1 (P00915 whole entry): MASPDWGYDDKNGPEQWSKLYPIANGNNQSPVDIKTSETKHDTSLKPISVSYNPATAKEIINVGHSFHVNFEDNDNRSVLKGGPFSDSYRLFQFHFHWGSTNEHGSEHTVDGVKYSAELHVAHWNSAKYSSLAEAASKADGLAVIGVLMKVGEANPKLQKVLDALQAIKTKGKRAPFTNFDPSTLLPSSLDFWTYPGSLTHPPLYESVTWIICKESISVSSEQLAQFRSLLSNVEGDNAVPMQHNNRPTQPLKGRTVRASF

Take `NS(=O)(=O)c1ccc(CCNC(=O)c2ccc(CN(CC(=O)O)CC(=O)O)cc2)cc1` [copper(2+) ion 2-[(carboxylatomethyl)[(4-{[2-(4-sulfamoylphenyl)ethyl]carbamoyl}phenyl)methyl]amino]acetate]: the results for the Kd on Carbonic anhydrase 1 and at Carbonic anhydrase 2 were 200 nM and 235 nM, respectively.
